According to patent publication US8293729B2 (Boehringer Ingelheim International GmbH, priority 2009, dated 2012):

target: T1, human GPR119 receptor (Homo sapiens, UniProt Q8TDV5, S329A/T327A); assay: cAMP assay (LANCE cAMP-384) in HEK293 cells stably expressing mutant human GPR119 receptor; assay type: cell-based; conditions: HEK293, 20 min; at 10 μM; printed in EC50 column of the 36th table; read-out: stimulation in % at 10 μM
T1 construct: N-terminal leader […]; expressed in transfected cells
T1 sequence (Q8TDV5 with tags, fused parts or gaps T327A/S329A): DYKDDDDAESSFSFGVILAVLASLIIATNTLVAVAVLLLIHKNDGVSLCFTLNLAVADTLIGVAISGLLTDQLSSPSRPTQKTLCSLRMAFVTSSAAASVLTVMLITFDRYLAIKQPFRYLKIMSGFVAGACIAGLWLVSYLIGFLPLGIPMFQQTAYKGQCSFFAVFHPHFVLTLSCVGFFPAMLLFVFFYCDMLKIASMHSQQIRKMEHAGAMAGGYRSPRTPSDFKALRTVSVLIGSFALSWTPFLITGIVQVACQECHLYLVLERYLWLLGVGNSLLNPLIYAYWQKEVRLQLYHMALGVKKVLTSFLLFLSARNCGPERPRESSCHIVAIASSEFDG
How it was run: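 HEK293 cells stably expressing human GPR119 (T327A/S329A, modified N-terminus), 1000 cells/well, exposed to compound for 20 min at 37° C. cAMP quantified by LANCE TR-FRET against a standard curve; EC50 from 12 points, 30 μM to 100 pM, or % stimulation at 10 μM.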

Compound | activation at 10 µM [%]
Cc1cc(CN2CCC(ON=C3CCN(c4ccc(S(C)(=O)=O)cc4F)CC3)CC2)oc1C [Example 66-34] | 75
CS(=O)(=O)c1ccc(N2CCC(=NOC3CCN(Cc4ccc5c(c4)CCO5)CC3)CC2)c(F)c1 [Example 66-35] | 61
CN(C)c1ccc(CN2CCC(ON=C3CCN(c4ccc(S(C)(=O)=O)cc4F)CC3)CC2)cc1 [Example 66-36] | 83
CS(=O)(=O)c1ccc(N2CCC(=NOC3CCN(Cc4ccc5c(c4)OCO5)CC3)CC2)c(F)c1 [Example 66-37] | 87
Cc1ccc(CN2CCC(ON=C3CCN(c4ccc(S(C)(=O)=O)cc4F)CC3)CC2)c(F)c1F [Example 66-48] | 99
CCc1ncc(CN2CCC(ON=C3CCN(c4ccc(S(C)(=O)=O)cc4F)CC3)CC2)cn1 [Example 66-49] | 75
CS(=O)(=O)c1ccc(N2CCC(=NOC3CCN(Cc4cccnc4Cl)CC3)CC2)c(F)c1 [Example 66-51] | 66

same assay, conditions: the 36th table, compounds 66-1 to 66-51; read-out: EC50

Compound | EC50 [nM]
Cc1cccc(CN2CCC(ON=C3CCN(c4ccc(S(C)(=O)=O)cc4F)CC3)CC2)c1 [Example 66-25] | 605
Cc1ccc(CN2CCC(ON=C3CCN(c4ccc(S(C)(=O)=O)cc4F)CC3)CC2)cc1 [Example 66-26] | 288
CCc1ccc(CN2CCC(ON=C3CCN(c4ccc(S(C)(=O)=O)cc4F)CC3)CC2)cc1 [Example 66-27] | 109
CS(=O)(=O)c1ccc(N2CCC(=NOC3CCN(Cc4ccc(Cl)cc4)CC3)CC2)c(F)c1 [Example 66-28] | 363
CS(=O)(=O)c1ccc(N2CCC(=NOC3CCN(Cc4ccccc4C(F)(F)F)CC3)CC2)c(F)c1 [Example 66-29] | 1220
CS(=O)(=O)c1ccc(N2CCC(=NOC3CCN(Cc4cccc(C(F)(F)F)c4)CC3)CC2)c(F)c1 [Example 66-30] | 1740
CS(=O)(=O)c1ccc(N2CCC(=NOC3CCN(Cc4ccc(C(F)(F)F)cc4)CC3)CC2)c(F)c1 [Example 66-31] | 354
CC(C)c1ccc(CN2CCC(ON=C3CCN(c4ccc(S(C)(=O)=O)cc4F)CC3)CC2)cc1 [Example 66-32] | 332
CS(=O)(=O)c1ccc(N2CCC(=NOC3CCN(Cc4ccc(F)cc4)CC3)CC2)c(F)c1 [Example 66-33] | 822
COc1ccc(CN2CCC(ON=C3CCN(c4ccc(S(C)(=O)=O)cc4F)CC3)CC2)cc1F [Example 66-38] | 435
CC(=O)Nc1ccc(CN2CCC(ON=C3CCN(c4ccc(S(C)(=O)=O)cc4F)CC3)CC2)cc1 [Example 66-39] | > 10000
CC(C)Oc1ccc(CN2CCC(ON=C3CCN(c4ccc(S(C)(=O)=O)cc4F)CC3)CC2)cc1 [Example 66-40] | 332
CS(=O)(=O)c1ccc(N2CCC(=NOC3CCN(Cc4ccc(Br)cc4)CC3)CC2)c(F)c1 [Example 66-41] | 609
CS(=O)(=O)c1ccc(N2CCC(=NOC3CCN(Cc4ccc(OC(F)(F)F)cc4)CC3)CC2)c(F)c1 [Example 66-42] | 503
CS(=O)(=O)c1ccc(N2CCC(=NOC3CCN(Cc4ccc(Br)cc4F)CC3)CC2)c(F)c1 [Example 66-44] | 753
COc1ccc(CN2CCC(ON=C3CCN(c4ccc(S(C)(=O)=O)cc4F)CC3)CC2)cc1 [Example 66-45] | 6000
CCOc1ccc(CN2CCC(ON=C3CCN(c4ccc(S(C)(=O)=O)cc4F)CC3)CC2)cc1 [Example 66-46] | 418
Cc1ccc(CN2CCC(ON=C3CCN(c4ccc(S(C)(=O)=O)cc4F)CC3)CC2)c(F)c1 [Example 66-47] | 909
COc1ccc(CN2CCC(ON=C3CCN(c4ccc(S(C)(=O)=O)cc4F)CC3)CC2)c(F)c1 [Example 66-50] | 1010

same assay, conditions: the 37th table, compounds 66-52 to 66-64; read-out: EC50

Compound | EC50 [nM]
CS(=O)(=O)c1cc(F)c(N2CCC(=NOC3CCN(Cc4ccc(-c5ccccn5)cc4)CC3)CC2)cc1F [Example 66-52] | 926
CCCc1ccc(CN2CCC(ON=C3CCN(c4cc(F)c(S(C)(=O)=O)cc4F)CC3)CC2)cc1 [Example 66-53] | 35
Cc1ccc(CN2CCC(ON=C3CCN(c4cc(F)c(S(C)(=O)=O)cc4F)CC3)CC2)cc1 [Example 66-54] | 44
CCc1ccc(CN2CCC(ON=C3CCN(c4cc(F)c(S(C)(=O)=O)cc4F)CC3)CC2)cc1 [Example 66-55] | 37
CS(=O)(=O)c1cc(F)c(N2CCC(=NOC3CCN(Cc4ccc(Cl)cc4)CC3)CC2)cc1F [Example 66-56] | 50
CCCCc1ccc(CN2CCC(ON=C3CCN(c4cc(F)c(S(C)(=O)=O)cc4F)CC3)CC2)cc1 [Example 66-57] | 29
CCc1ccc(C(C)N2CCC(ON=C3CCN(c4cc(F)c(S(C)(=O)=O)cc4F)CC3)CC2)cc1 (stereo not drawn) [Example 66-58] | 72
CCCc1ccc(CN2CCC(ON=C3CCN(c4cc(F)c(S(C)(=O)=O)cc4F)CC3)CC2)c(F)c1 [Example 66-59] | 53
CCCc1ccc(CN2CCC(ON=C3CCN(c4cc(F)c(S(C)(=O)=O)cc4F)CC3)CC2)cc1F [Example 66-60] | 31
C/C=C/c1ccc(CN2CCC(ON=C3CCN(c4cc(F)c(S(C)(=O)=O)cc4F)CC3)CC2)cc1F [Example 66-61] | 49
C/C=C/c1ccc(CN2CCC(ON=C3CCN(c4cc(F)c(S(C)(=O)=O)cc4F)CC3)CC2)c(F)c1 [Example 66-62] | 136
CCc1ccc([C@H](C)N2CCC(ON=C3CCN(c4cc(F)c(S(C)(=O)=O)cc4F)CC3)CC2)cc1 [Example 66-63] | 294
CCc1ccc([C@@H](C)N2CCC(ON=C3CCN(c4cc(F)c(S(C)(=O)=O)cc4F)CC3)CC2)cc1 [Example 66-64] | > 10000

same assay, conditions: the 38th table, compounds 66-65 to 66-72; read-out: EC50

Compound | EC50 [nM]
CNC(=O)c1cc(F)c(N2CCC(=NOC3CCN(Cc4ccc(-c5ccccn5)cc4)CC3)CC2)cc1F [Example 66-65] | 792
CNC(=O)c1cc(F)c(N2CCC(=NOC3CCN(Cc4ccc(-c5cccnc5)cc4)CC3)CC2)cc1F [Example 66-66] | 1270
CNC(=O)c1cc(F)c(N2CCC(=NOC3CCN(Cc4ccc(C(F)(F)F)cc4)CC3)CC2)cc1F [Example 66-67] | 155
CNC(=O)c1cc(F)c(N2CCC(=NOC3CCN(Cc4ccc(Cl)cc4)CC3)CC2)cc1F [Example 66-68] | 365
CNC(=O)c1cc(F)c(N2CCC(=NOC3CCN(Cc4ccc(-c5cncnc5)cc4)CC3)CC2)cc1F [Example 66-69] | 2260
CNC(=O)c1cc(F)c(N2CCC(=NOC3CCN(Cc4ccc(C)cc4)CC3)CC2)cc1F [Example 66-70] | 193
CCc1ccc(CN2CCC(ON=C3CCN(c4cc(F)c(C(=O)NC)cc4F)CC3)CC2)cc1 [Example 66-71] | 79
CCCc1ccc(CN2CCC(ON=C3CCN(c4cc(F)c(C(=O)NC)cc4F)CC3)CC2)cc1 [Example 66-72] | 109

same assay, conditions: the 39th table, compounds 67-1 to 67-3; read-out: EC50

Compound | EC50 [nM]
Cc1ccc(N2CCC(ON=C3CCN(c4ccc(S(C)(=O)=O)cc4F)CC3)CC2)nc1 [Example 67-1, 1-(2-Fluoro-4-methanesulfonyl-phenyl)-piperidin-4-one O-(5′-methyl-3,4,5,6-tetrahydro-2H-[1,2′]bipyridinyl-4-yl)-oxime] | 386
CCc1ccc(N2CCC(ON=C3CCN(c4ccc(S(C)(=O)=O)cc4F)CC3)CC2)nc1 [Example 67-2] | 558
Cc1ccc(N2CCC(ON=C3CCN(c4ccc(S(C)(=O)=O)cc4F)CC3)CC2)cn1 [Example 67-3] | 745

same assay, conditions: the 41st table, compounds 73-1, 73-2; unit inferred; read-out: EC50

Compound | EC50 [nM]
CS(=O)(=O)c1ccc(N2CCC(=NOC3CCN(C(=O)N4CCCCC4)CC3)CC2)c(F)c1 [Example 73-1, 1-(2-FLUORO-4-METHANESULFONYL-PHENYL)-PIPERIDIN-4-ONE O-[1-(PIPERIDINE-1-CARBONYL)-PIPERIDIN-4-YL]-OXIME] | 425
CS(=O)(=O)c1ccc(N2CCC(=NOC3CCN(C(=O)N4CCCC4)CC3)CC2)c(F)c1 [Example 73-2] | 1510

same assay, conditions: the 43rd table, compounds 75-1 to 75-38; read-out: EC50

Compound | EC50 [nM]
CC(C)OC(=O)N1CCC(ON=C2CCN(c3cc(F)c(CC(=O)NCCN(C)C)cc3F)CC2)CC1 [Example 75-1, 4-(1-{4-[(2-dimethylamino-ethylcarbamoyl)-methyl]-2,5-difluoro-phenyl}-piperidin-4-ylideneaminooxy)-piperidine-1-carboxylic acid isopropyl ester] | 254
CC(C)OC(=O)N1CCC(ON=C2CCN(c3cc(F)c(CC(=O)N4CCC(CN)CC4)cc3F)CC2)CC1 [Example 75-9] | 144
CC(C)OC(=O)N1CCC(ON=C2CCN(c3cc(F)c(CC(=O)NC[C@@H]4CCCN4)cc3F)CC2)CC1 [Example 75-10] | 203
CC(C)OC(=O)N1CCC(ON=C2CCN(c3cc(F)c(CC(=O)NC[C@H]4CCCN4)cc3F)CC2)CC1 [Example 75-11] | 161
CC(C)OC(=O)N1CCC(ON=C2CCN(c3cc(F)c(CC(=O)N4CCC(N)CC4)cc3F)CC2)CC1 [Example 75-12] | 92
CC(C)OC(=O)N1CCC(ON=C2CCN(c3cc(F)c(CC(=O)N4CCC[C@H](N)C4)cc3F)CC2)CC1 [Example 75-13] | 116
CC(C)OC(=O)N1CCC(ON=C2CCN(c3cc(F)c(CC(=O)N4CCC[C@@H](N)C4)cc3F)CC2)CC1 [Example 75-14] | 51
CC(C)OC(=O)N1CCC(ON=C2CCN(c3cc(F)c(CC(=O)N4CC[C@H](CN)C4)cc3F)CC2)CC1 [Example 75-15] | 29
